pIC50: −log10 of the molar value. Numbered stars: 1 amine (or outer) side, 2 acyl side, 3 side chain; on linkers, the order of the positions; unused ones are H or OH. Bridge positions count the residues as written; N and C are the ends. Square brackets hold non-standard residues; d marks the D form. Peptide text beside a SMILES is read from it. ξ: configuration not given here. X4 = C/C=C(\C)[C@@H](N[*:1])[C@@H](C)[C@H](O)C/C=C(\C)C(=O)O[C@H](CC(C)C)C(=O)[*:2]; X10 = C/C(=C\CCCCO[*:2])C(=O)[*:1]; X11 = C/C(=C\CCO[*:2])C(=O)[*:1]; X9 = C/C(=C\CCCO[*:2])C(=O)[*:1]; dNMeF = CN[C@H](Cc1ccccc1)C(=O)O; Ile(3ξ) = CCC(C)[C@H](N)C(=O)O; dHica = CC(C)C[C@@H](O)C(=O)O; NMeA = CN[C@@H](C)C(=O)O; dNMeA = CN[C@H](C)C(=O)O; Sar = CNCC(=O)O
Key:
[1] = system: BT-474 human mammary gland ductal carcinoma cells; test: Inhibitory response of test compounds against BT-474 cells (Cell Titer-Glo, 72 h); type: cell-based; details: Homo sapiens
Experimental: (§1) BT-474 human mammary gland ductal carcinoma cells were seeded in a clear polystyrene 96-well microculture plate (Corning® Costar® 96-well flat bottom plate, Cat.#3997) in a total volume of 90 μL/well. After 24 hours of incubation in a humidified incubator at 37° C. with 5% CO2 and 95% air, 10 μL of 10×, serially diluted test agents in growth medium were added to each well (10 pt dose response curve, highest concentration 10 μM of test agent). After 72 hours of culture in a humidified incubator at 37° C., in an atmosphere of 5% CO2 and 95% air, the plated cells and Cell Titer-Glo® (Promega G7571) reagents were brought to room temperature to equilibrate for 30 minutes. 100 μL of Cell Titer-Glo® reagent was added to each well. The plate was shaken for two minutes and then left to equilibrate for ten minutes. The media/Cell Titer-Glo® reagent was transferred to a white polystyrene 96-well microculture plate (Corning® Costar® 96-well flat bottom plate, Cat.#3917) before reading luminescence on a Tecan GENios microplate reader.
(§2) Percent inhibition of cell growth was calculated relative to untreated control wells. The IC50 value for the test agents was determined using Prism 6.05 by curve-fitting of the data using the following four parameter-logistic equation:
(§3) [formula] where Top is the maximal % of control absorbance, Bottom is the minimal % of control absorbance at the highest agent concentration, Y is the % of control absorbance, X is the agent concentration, IC50 is the concentration of agent that inhibits cell growth by 50% compared to the control cells, and n is the slope of the curve.

HCC1954 cells = test: Inhibitory response of test compounds against HCC1954 cells (method analogous to BT-474); type: cell-based; details: Homo sapiens
Experimental: as §1, §2, §3
Inhibitory response of test compounds against HCC1954 cells was determined using a method analogous to that used for BT-474 cells.

Row | Structure (SMILES) | pIC50 [1] | other results
1 | CCC(C)[C@@H]1NC(=O)CN(C)C(=O)[C@@H](Cc2ccccc2)N(C)C(=O)[C@H](C)NC(=O)[C@@H](CC(C)C)OC(=O)/C(C)=C/CCCOC(=O)[C@H](C)NC1=O (some centres unmarked) [Compound 4] ([dHica]A[dNMeF][Sar][Ile(3ξ)]A; linker N-C via X9) | < 5.00 | 
2 | CCC(C)[C@@H]1NC(=O)CN(C)C(=O)[C@@H](Cc2ccccc2)N(C)C(=O)[C@H](C)NC(=O)[C@@H](CC(C)C)OC(=O)/C(C)=C/CCCOC(=O)[C@@H](C)NC1=O (some centres unmarked) [Compound 5] ([dHica]A[dNMeF][Sar][Ile(3ξ)][dA]; linker N-C via X9) | < 5.00 | 
3 | CCC(C)[C@@H]1NC(=O)CN(C)C(=O)[C@@H](Cc2ccccc2)N(C)C(=O)[C@H](C)NC(=O)[C@@H](CC(C)C)OC(=O)/C(C)=C/CCCOC(=O)[C@H](C)N(C)C1=O (some centres unmarked) [Compound 9] ([dHica]A[dNMeF][Sar][Ile(3ξ)][NMeA]; linker N-C via X9) | < 5.00 | 
4 | CCC(C)[C@@H]1NC(=O)CN(C)C(=O)[C@@H](Cc2ccccc2)N(C)C(=O)[C@H](C)NC(=O)[C@@H](CC(C)C)OC(=O)/C(C)=C/CCCOC(=O)[C@@H](C)N(C)C1=O (some centres unmarked) [Compound 10] ([dHica]A[dNMeF][Sar][Ile(3ξ)][dNMeA]; linker N-C via X9) | < 5.00 | 
5 | CCC(C)[C@@H]1NC(=O)CN(C)C(=O)[C@@H](Cc2ccccc2)N(C)C(=O)[C@H](C)NC(=O)[C@@H](CC(C)C)OC(=O)/C(C)=C/CCCOC(=O)[C@H](CCCCNC(=O)OC(C)(C)C)NC1=O (some centres unmarked) [Compound 11] | < 5.00 | 
6 | CCC(C)[C@@H]1NC(=O)CN(C)C(=O)[C@@H](Cc2ccccc2)N(C)C(=O)[C@H](C)NC(=O)[C@@H](CC(C)C)OC(=O)/C(C)=C/CCOC(=O)[C@@H](C)NC1=O (some centres unmarked) [Compound 12] ([dHica]A[dNMeF][Sar][Ile(3ξ)][dA]; linker N-C via X11) | < 5.00 | 
7 | CCC(C)[C@@H]1NC(=O)CN(C)C(=O)[C@@H](Cc2ccccc2)N(C)C(=O)[C@H](C)NC(=O)[C@@H](CC(C)C)OC(=O)/C(C)=C/CCCCOC(=O)[C@@H](C)NC1=O (some centres unmarked) [Compound 13] ([dHica]A[dNMeF][Sar][Ile(3ξ)][dA]; linker N-C via X10) | < 5.00 | 
8 | CCC(C)[C@@H]1NC(=O)CN(C)C(=O)[C@@H](Cc2ccccc2)N(C)C(=O)[C@H](C)NC(=O)[C@@H](CC(C)C)OC(=O)/C(C)=C/CCCCOC(=O)[C@@H](C)N(C)C1=O (some centres unmarked) [Compound 14] ([dHica]A[dNMeF][Sar][Ile(3ξ)][dNMeA]; linker N-C via X10) | < 5.00 | 
9 | CCC(C)[C@@H]1NC(=O)CN(C)C(=O)[C@@H](Cc2ccccc2)N(C)C(=O)[C@H](C)NC(=O)[C@@H](CC(C)C)OC(=O)/C(C)=C/CCCCOC(=O)[C@H](C)NC1=O (some centres unmarked) [Compound 17] ([dHica]A[dNMeF][Sar][Ile(3ξ)]A; linker N-C via X10) | 5.00 to 6.70 | 
10 | C/C=C(\C)[C@H]1NC(=O)[C@@H](C)NC(=O)[C@H](C(C)CC)NC(=O)CN(C)C(=O)[C@@H](Cc2ccccc2)N(C)C(=O)[C@H](C)NC(=O)[C@@H](CC(C)C)OC(=O)/C(C)=C/C[C@@H](O)[C@@H]1C (some centres unmarked) [Compound 19] (cyclo(A[dNMeF][Sar][Ile(3ξ)][dA][X4])) | < 5.00 | pIC50 ([1]; 72 h, Cell Titer-Glo, highest concentration 10 μM): < 5.00
11 | C/C=C(\C)[C@H]1OC(=O)[C@@H](C)NC(=O)[C@H](C(C)CC)NC(=O)CN(C)C(=O)[C@@H](Cc2ccccc2)N(C)C(=O)[C@H](C)NC(=O)[C@@H](CC(C)C)OC(=O)/C(C)=C/C[C@H](O)[C@H]1C (some centres unmarked) [Compound 20] | 5.00 to 6.70 | pIC50 ([1]; 72 h, Cell Titer-Glo): 6.41
12 | C/C=C(\C)[C@H]1OC(=O)[C@@H](C)NC(=O)[C@H](C(C)CC)NC(=O)CN(C)C(=O)[C@@H](Cc2ccc(Cl)cc2)N(C)C(=O)[C@H](C)NC(=O)[C@@H](CC(C)C)OC(=O)/C(C)=C/C[C@H](O)[C@@H]1C (some centres unmarked) [Compound 21] | > 7.70 | pIC50 (HCC1954 cells): > 7.70
13 | CCC(C)[C@@H]1NC(=O)CN(C)C(=O)[C@@H](Cc2ccccc2)N(C)C(=O)[C@H](C)NC(=O)[C@@H](CC(C)C)OC(=O)/C(C)=C/CCCOC(=O)[C@H](CCCCN)NC1=O (some centres unmarked) [Compound 60] ([dHica]A[dNMeF][Sar][Ile(3ξ)]K; linker N-C via X9) | < 5.00 | 
14 | C/C=C(\C)[C@H]1OC(=O)[C@@H](C)NC(=O)[C@H]([C@H](C)CC)NC(=O)CN(C)C(=O)[C@@H](Cc2ccc(Cl)cc2)N(C)C(=O)[C@H](C)NC(=O)[C@@H](CC(C)C)OC(=O)/C(C)=C/C[C@H](OCSC)[C@@H]1C [Compound 61] | > 7.70 | 

Source: patent US10472395B2, “Cyclic peptide analogs and conjugates thereof” (Sirenas LLC, priority 2015, dated 2019)
